Data: patent publication US20250346633A1, “MACOLACINS AND METHODS OF USE THEREOF” (priority 2021, published 2025)
≈ marks a conversion by molar mass, not a printed value. Where two headings read alike, the source gives them in different places. Bridge positions count the residues as written; N and C are the ends. Square brackets hold non-standard residues; d marks the D form. Peptide text beside a SMILES is read from it. * marks the point of attachment. Benzoyl(4-Ph) = O=C(c1ccc(-c2ccccc2)cc1)*; X1 = CC[C@H](C)CCCCC(=O)*; Dab = NCC[C@H](N)C(=O)O

Key:
[1] = tested on: Proteus vulgaris
[2] = tested on: A. baumannii 0301
[3] = mouse, in vivo, sc, 10 mg/kg
Experimental: (§1) Six-week old CD-1 female mice (20-25 g) were used in pharmacokinetic studies. […] Aliquots of 20 μL of blood were taken by puncture of the lateral tail vein from each mouse (n=2 per route and dose) at 30 minutes, 1, 3, and 5 hours post-dose and captured in CB300 blood collection tubes containing K2EDTA and stored on ice. Plasma was recovered after centrifugation and stored at −80° C. until analyzed by high pressure liquid chromatography coupled to tandem mass spectrometry. […] Standards and QCs were created by adding 10 μL of spiking solutions to 90 μL of drug free plasma (CD-1 K2EDTA Mouse, Bioreclamation IVT). 10 μL of control, standard, QC, or study samples were added to 10 μL of internal standard. […] The compounds were extracted by adding 100 μL of 50% Methanol/50% (10% Trichloroacetic acid in water) precipitation solvent. Extracts were vortexed for 5 minutes and centrifuged at 4,000 rpm for 5 minutes. 75 μL of supernatant was transferred for HPLC-MS/MS analysis and diluted with 75 μL of Milli-Q deionized water. LC-MS/MS analysis was performed on a Sciex Applied Biosystems Qtrap 6500+triple-quadrupole mass spectrometer coupled to a Shimadzu Nexera×2 UHPLC system to quantify each drug in plasma. […] Multiple-reaction monitoring of parent/daughter transitions in electrospray positive-ionization mode was used to quantify the analytes. […]

[4] = tested on: CRAB, as well as a panel of XDR A. baumannii clinical isolates; settings: CRAB and XDR A. baumannii clinical isolates, even when transformed with mcr-1
Experimental: MIC assays were conducted following the protocol recommended by the Clinical and Laboratory Standards Institute (Testing E C et al., 2016, EUCAST: Växjö; Wikler M A et al., 2006, CLSI (NCCLS), 26: M7-A7). […] Polymyxin B sulfate (Sigma, USA) and colistin sulfate (Sigma, USA) were used as positive controls. […] The top and bottom rows of each plate were filled with 100 μL of LB broth without compound to avoid edge effects. The last well in each row was treated as a negative control. It contained bacteria but no test compounds. A single colony of each assayed bacterial strain was inoculated into 5 mL of LB broth medium and grown overnight at 37° C. (200 rpm). For assays using bacteria containing mcr-1 expression plasmids, the appropriate selection antibiotic was added to keep the plasmid stable (concentrations are listed in Table 5). Saturated overnight cultures were diluted 5,000-fold in fresh LB, and then 50 μL was transferred into individual wells of a 96-well plate.

[5] = tested on: A. baumannii 0301 with mcr-1; settings: colistin R
[6] = tested on: A. baumannii ATCC17978; assay: CHIR-090 inhibition assay (growth curves); type: cell-based, Acinetobacter baumannii; settings: for A. baumannii growth: antibiotic alone at concentrations above MIC; for A. baumannii growth / A. baumannii growth with CHIR-090 included: 48 hours; for A. baumannii growth with CHIR-090 included: antibiotic plus CHIR-090
[7] = Pharmacokinetics assessment; settings: mice; single subcutaneous dose of 10 mg/kg; FIG. 9
Experimental: as §1

[8] = tested on: A. baumannii ATCC17978
[9] = tested on: E. cloacae 0150; settings: colistin S, n=2
[10] = tested on: K. pneumoniae 10031; settings: colistin S, n=2
[11] = tested on: A. baumannii SM1536; settings: colistin S
[12] = tested on: K. pneumoniae ATCC13883 (pMQ124-mcr-1)
[13] = tested on: A. baumannii SM1536 (pMQ124xlab1-mcr-1)
[14] = tested on: A. baumannii ATCC17978 (pMQ124xlab1-mcr-1)
[15] = tested on: S. typhimurium 0635 (mcr-1 clinical isolate); settings: colistin R
[16] = tested on: S. aureus SH1000; settings: colistin R, n=2
[17] = tested on: A. baumannii SM1536-(mcr-1); assay: Neutropenic thigh infection model; type: in vivo, Acinetobacter baumannii; settings: neutropenic mouse thigh, 20 mg/kg SC at 6 hour intervals, 24 h
Experimental: (§2) After 24 hours the bacterial burden in each infected thigh was determined based on colony forming units (CFUs) that arose from homogenized tissue samples.
(§3) Six-week old female outbred Swiss Webster mice (20-25 g) were used for this experiment. Mice were housed in individually ventilated cages (IVC) and maintained in accordance with American Association for Accreditation of Laboratory Care criteria. Acinetobacter baumannii SM1536-(mcr-1) or A. baumannii-0301-(mcr-1) was grown in cation adjusted Mueller Hinton (MH) broth containing 50 μg/mL of gentamycin at 37° C. with shaking overnight. The cultures were centrifuged, supernatant aspirated and the bacteria were gently washed twice in sterile saline. […] All mice were closely monitored post-infection for morbidity. Any abnormal clinical signs were recorded if observed. […] The treatment efficacy was determined both as the bacterial burden reduction in the thighs relative to the vehicle and colistin treated controls. All graphic data are expressed as columnar average data points by group and were statistically analyzed using computer Prism software (Prism 9). Burden differences between testing and control groups was assessed by post-hoc analysis, using the Mann-Whitney comparison test. […]

[18] = tested on: A. baumannii-0301-(mcr-1); assay: Neutropenic thigh infection model; type: in vivo, Acinetobacter baumannii; settings: neutropenic mouse thigh, 20 mg/kg SC at 6 hour intervals, 24 h
Experimental: as §2, §3

[19] = tested on: E. faecium Com15; settings: colistin R, n=2
[20] = tested on: A. baumannii 0296; settings: mcr-1 −, colistin S
[21] = tested on: A. baumannii 0295; settings: mcr-1 −, colistin S
[22] = tested on: K. pneumoniae ATCC13883; settings: colistin S, mcr-1 engineered pair
[23] = tested on: A. baumannii 0287 with mcr-1; settings: colistin R
[24] = tested on: P. aeruginosa PA01; settings: colistin S, n=2
[25] = MTT cytotoxicity assay; type: cell-based; settings: HEK293, human cells
Experimental: Compounds with different concentrations were then added into each well. After 48 h of incubation, the media was removed and MTT solution (0.45 mg/mL) was added into each well. After 3 h of incubation, the solution was aspirated. […] The absorbance of each well was measured at OD570nm using a microplate reader (Epoch Microplate Spectrophotometer, BioTek). Taxol was used as the positive control. […] All the experiments were performed triplicates (n=3).

[26] = tested on: K. pneumoniae and A. baumannii; assay: MIC upon addition of cell wall components (lipid A, LPS) to the media; type: cell-based, Klebsiella pneumoniae; Acinetobacter baumannii; settings: FIG. 3C; n=2
[27] = tested on: A. baumannii 0295 with mcr-1; settings: colistin R
[28] = tested on: K. pneumoniae 0497 (mcr-1 clinical isolate); settings: colistin R
[29] = tested on: A. baumannii 0282; settings: mcr-1 −, colistin S
[30] = tested on: E. cloacae ATCC13047 (ΔphoP/Q)
Experimental: (§4) MIC assays were conducted following the protocol recommended by the Clinical and Laboratory Standards Institute (Testing E C et al., 2016, EUCAST: Växjö; Wikler M A et al., 2006, CLSI (NCCLS), 26: M7-A7). […] Polymyxin B sulfate (Sigma, USA) and colistin sulfate (Sigma, USA) were used as positive controls. […] The top and bottom rows of each plate were filled with 100 μL of LB broth without compound to avoid edge effects. The last well in each row was treated as a negative control. It contained bacteria but no test compounds. A single colony of each assayed bacterial strain was inoculated into 5 mL of LB broth medium and grown overnight at 37° C. […] Saturated overnight cultures were diluted 5,000-fold in fresh LB, and then 50 μL was transferred into individual wells of a 96-well plate.

[31] = tested on: A. baumannii 0286; settings: mcr-1 −, colistin S
[32] = tested on: E. cloacae ATCC13047 (ΔphoP/Q + phoP/Q); settings: colistin R
Experimental: as §4

[33] = tested on: A. baumannii 0287; settings: mcr-1 −, colistin S
[34] = tested on: K. pneumoniae and A. baumannii transformed with a plasmid expressing mcr-1; type: cell-based, Klebsiella pneumoniae; Acinetobacter baumannii
[35] = tested on: Gram−positive pathogens; assay: MIC against ESKAPE pathogens; type: cell-based; settings: highest concentration tested 128 μg/mL
[36] = A. baumannii ATCC17978, colistin S, mcr-1 engineered pair
[37] = A. baumannii SM1536 (pMQ124xlab1-mcr-1), colistin R
[38] = extremely highly colistin resistant A. baumannii

Row | Molecule | Antibiotic MIC [2]; 0301 [µg/mL] | Antibiotic MIC [5] [µg/mL] | MIC [8, 36] [µg/mL] | MIC [9] [µg/mL] | MIC [10] [µg/mL] | MIC [11] [µg/mL] | MIC [13, 37] [µg/mL] | MIC [13, 38] [µg/mL] | MIC [15] [µg/mL] | MIC [16] [µg/mL] | MIC [19] [µg/mL] | MIC [22] [µg/mL] | MIC [24] [µg/mL] | change of MIC on addition of lipid A or lipopolysaccharide (LPS) to the assay media [26] | MIC [28] [µg/mL] | MIC [30] [µg/mL] | MIC [32] [µg/mL] | A. baumannii growth [6] | A. baumannii growth with CHIR-090 included [6] | MIC [14] [µg/mL] | further results
1 | CC[C@H](C)[C@@H]1NC(=O)[C@@H](CC(C)C)NC(=O)[C@H](CCN)NC(=O)[C@@H](NC(=O)[C@@H](CO)NC(=O)[C@@H](NC(=O)[C@H](CCN)NC(=O)c2ccc(-c3ccccc3)cc2)[C@@H](C)O)CCNC(=O)[C@H](CC(C)C)NC(=O)[C@H](CCN)NC(=O)[C@H](CCN)NC1=O [Biphenyl-macolacin] ({Benzoyl(4-Ph)}-[Dab]T[dS][Dab][Dab][dL]I[Dab][Dab]L; lactam 4-C) | 0.5 | 1 | – | – | – | – | – | – | – | – | – | – | – | – | – | – | – | – | – | – | MIC [1]: 4 µg/mL (≈ 3.31 µM); plasma drug exposure (pharmacokinetic profile) [3]: parity in plasma drug exposure; MICs [4]: < 2 µg/mL; Antibiotic MIC ([5]; listed as biphenyl-macolacin): < 2 µg/mL
2 | C[C@@H](O)[C@H](NC(=O)c1ccc(C#Cc2ccc(CN3CCOCC3)cc2)cc1)C(=O)NO [CHIR-090] | – | – | – | – | – | – | – | – | – | – | – | – | – | – | – | – | – | – | – | – | A. baumannii growth, CHIR-090 alone ([6]; CHIR-090 alone): did not inhibit A. baumannii growth
3 | CC[C@H](C)CCCCC(=O)N[C@@H](CCN)C(=O)N[C@H](C(=O)N[C@@H](CCN)C(=O)N[C@H]1CCNC(=O)[C@H]([C@@H](C)O)NC(=O)[C@H](CCN)NC(=O)[C@H](CCN)NC(=O)[C@H](CC(C)C)NC(=O)[C@@H](CC(C)C)NC(=O)[C@H](CCN)NC1=O)[C@@H](C)O [Colistin, colistin] (X1-[Dab]T[Dab][Dab][Dab][dL]L[Dab][Dab]T; lactam 4-C) | – | >128 | 1 (≈ 0.855 µM) | 1 (≈ 0.855 µM) | 0.5 (≈ 0.428 µM) | 0.5 (≈ 0.428 µM) | 128 (≈ 109 µM) | > 128 | 16 (≈ 13.7 µM) | >128 | >128 | 1 (≈ 0.855 µM) | 1 (≈ 0.855 µM) | significant increase | 32 (≈ 27.4 µM) | 1 (≈ 0.855 µM) | 32 (≈ 27.4 µM) | completely abrogated A. baumannii growth | rescued A. baumannii growth | – | plasma drug exposure (pharmacokinetic profile) [7]: parity in plasma drug exposure; MIC ([12]; ATCC13883): 64 µg/mL (≈ 54.7 µM); MIC ([14]; ATCC17978): 32 µg/mL (≈ 27.4 µM); bacterial burden in infected thighs [17]: did not reduce the bacterial burden below the level of the initial infection; bacterial burden in infected thighs [18]: did not reduce the bacterial burden below the level of the initial infection; Antibiotic MIC [20]: 0.25 µg/mL; Antibiotic MIC [21]: 0.25 µg/mL; Antibiotic MIC [23]: 64 µg/mL; Antibiotic MIC ([2]; A. baumannii 0301, mcr-1 −, colistin S): 0.25 µg/mL; IC50 at 48 h [25]: > 512 µg/mL; Antibiotic MIC [27]: >128 µg/mL; Antibiotic MIC [29]: 0.5 µg/mL; Antibiotic MIC [31]: 1 µg/mL; MIC ([32]; listed as colistin): resistant; Antibiotic MIC ([5]; listed as colistin): > 64 µg/mL; Antibiotic MIC [33]: 0.5 µg/mL
4 | CC[C@H](C)CCCCC(=O)N[C@@H](CCN)C(=O)N[C@H](C(=O)N[C@H](CO)C(=O)N[C@H]1CCNC(=O)[C@H](CC(C)C)NC(=O)[C@H](CCN)NC(=O)[C@H](CCN)NC(=O)[C@H]([C@@H](C)CC)NC(=O)[C@@H](CC(C)C)NC(=O)[C@H](CCN)NC1=O)[C@@H](C)O [Macolacin] (X1-[Dab]T[dS][Dab][Dab][dL]I[Dab][Dab]L; lactam 4-C) | 0.5 | – | – | – | – | – | – | 8 (≈ 6.85 µM) | – | – | – | – | – | significant increase | – | – | 2 (≈ 1.71 µM) | completely abrogated A. baumannii growth | rescued A. baumannii growth | 2 (≈ 1.71 µM) | increase in MIC upon mcr-1 expression [34]: 2- to 4 fold; activity against Gram−positive pathogens [35]: no activity
5 | Polymyxin B | – | – | 0.5 | 1 | 1 | 1 | 128 | – | 16 | >128 | >128 | 1 | 2 | – | 32 | 1 | 32 | – | – | 16 | MIC [8]: 0.5 µg/mL; MIC [12]: 128 µg/mL; MIC ([32]; listed as polymyxin B): resistant
